Test results as given in patent US20180155344A1, “TRICYCLIC PIPERIDINE COMPOUNDS” (ACTELION PHARMACEUTICALS LTD, priority 2015, published 2018).

Each compound was assayed against T1, human TPH1 (Homo sapiens, UniProt P17752) (assay: biochemical).
T1 sequence (P17752 1-444): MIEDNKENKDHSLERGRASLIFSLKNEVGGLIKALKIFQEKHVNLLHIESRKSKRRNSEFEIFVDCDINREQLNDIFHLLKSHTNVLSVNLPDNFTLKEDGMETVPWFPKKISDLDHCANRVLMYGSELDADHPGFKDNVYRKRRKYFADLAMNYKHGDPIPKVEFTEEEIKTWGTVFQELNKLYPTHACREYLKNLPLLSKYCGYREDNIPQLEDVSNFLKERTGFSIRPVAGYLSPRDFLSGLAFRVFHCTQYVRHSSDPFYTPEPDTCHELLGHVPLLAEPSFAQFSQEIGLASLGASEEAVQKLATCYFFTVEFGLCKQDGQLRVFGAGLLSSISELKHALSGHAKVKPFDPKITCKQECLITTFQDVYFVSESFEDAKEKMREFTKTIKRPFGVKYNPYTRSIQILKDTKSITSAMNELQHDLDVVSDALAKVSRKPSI
Method in brief: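 Inhibition is derived from 5-hydroxy-L-tryptophan fluorescence (540 nm emission, 300 nm excitation) after perchloric acid stop, relative to DMSO vehicle. Recombinant full-length human enzyme (40-80 nM) reacts with 40 μM tryptophan plus 100 μM methyltetrahydropterin, pH 7.6 Tris/DTT/catalase, 15° C, 60 min.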

SMILES	IC50 [nM]
COc1ccc(C2c3c(nc4cc(C(F)(F)F)ccn34)CCN2C(=O)COc2ccc3ccccc3c2)cc1OC(F)F (centres unmarked) [Example 3.12.1, 1-(1-(3-(difluoromethoxy)-4-methoxyphenyl)-7-(trifluoromethyl)-3,4-dihydroimidazo[1,2-a:5,4-c′]dipyridin-2(1H)-yl)-2-(naphthalen-2-yloxy)ethan-1-one]	41
COc1ccc([C@@H]2c3c(nc4cc(Cl)ccn34)CCN2C(=O)COc2ccc(N3CCOCC3)cc2Cl)c(F)c1 [Example 2.3.4, 1-((1R)-7-chloro-1-(2-fluoro-4-methoxyphenyl)-3,10a-dihydroimidazo[1,2-a:5,4-c′]dipyridin-2(1H)-yl)-2-(2-chloro-4-morpholinophenoxy)ethan-1-one]	12
CCOC(=O)c1cc(OCC(=O)N2CCc3nc4ccccn4c3C2c2ccc(OC)c(OC)c2)c(CC)cc1C (centres unmarked) [Example 1.1.10, ethyl 5-(2-(1-(3,4-dimethoxyphenyl)-3,4-dihydroimidazo[1,2-a:5,4-c′]dipyridin-2(1H)-yl)-2-oxoethoxy)4-ethyl-2-methylbenzoate]	92
COc1ccc(C2c3c(nc4cc(Cl)ccn34)CCN2C(=O)COc2ccc(N3CCOCC3)cc2Cl)cc1OC (centres unmarked) [Example 2.1.7, 1-(7-chloro-1-(3,4-dimethoxyphenyl)-3,4-dihydroimidazo[1,2-a:5,4-c′]dipyridin-2(1H)-yl)-2-(2-chloro-4-morpholinophenoxy)ethan-1-one]	34
CCOc1ccc(C2c3c(nc4cc(C(F)(F)F)ccn34)CCN2C(=O)COc2ccc(CN3CCOCC3)cc2Cl)cc1 (centres unmarked) [Example 3.25.2, 2-(2-chloro-4-(morpholinomethyl)phenoxy)-1-(1-(4-ethoxyphenyl)-7-(trifluoromethyl)-3,4-dihydroimidazo[1,2-a:5,4-c′]dipyridin-2(1H)-yl)ethan-1-one]	20
COc1ccc(C2c3c(nc4cc(Cl)ccn34)CCN2C(=O)COc2ccc(Cl)cc2Cl)cc1OC (centres unmarked) [Example 2.1.6, 1-(7-chloro-1-(3,4-dimethoxyphenyl)-3,4-dihydroimidazo[1,2-a:5,4-c′]dipyridin-2(1H)-yl)-2-(2,4-dichlorophenoxy)ethan-1-one]	53
COCCN(C)c1ccc(OCC(=O)N2CCc3nc4ccccn4c3C2c2ccc(Cl)cc2F)c(Cl)n1 (centres unmarked) [Example 1.4.8, 1-(1-(4-chloro-2-fluorophenyl)-3,4-dihydroimidazo[1,2-a:5,4-c′]dipyridin-2(1H)-yl)-2-((2-chloro-6-((2-methoxyethyl)(methyl)amino)pyridin-3-yl)oxy)ethan-1-one]	39
CC(C)(O)c1ccc(C2c3c(nc4ccccn34)CCN2C(=O)COc2ccc(C(=O)NC3CC3)nc2Cl)c(F)c1 (centres unmarked) [Example 1.16.1, 6-chloro-N-cyclopropyl-5-(2-(1-(2-fluoro-4-(2-hydroxypropan-2-yl)phenyl)-3,4-dihydroimidazo[1,2-a:5,4-c′]dipyridin-2(1H)-yl)-2-oxoethoxy)picolinamide]	244
O=C(COc1ccc(N2CCOCC2)nc1Cl)N1CCc2nc3ccccn3c2C1c1cnc(N2CCOCC2)s1 (centres unmarked) [Example 1.6.1, 2-((2-chloro-6-morpholinopyridin-3-yl)oxy)-1-(1-(2-morpholinothiazol-5-yl)-3,4-dihydroimidazo[1,2-a:5,4-c′]dipyridin-2(1H)-yl)ethan-1-one]	387
O=C(COc1ccc(CN2CCOCC2)cc1Cl)N1CCc2nc3cc(C(F)(F)F)ccn3c2C1c1ccc(Cl)cc1F (centres unmarked) [Example 3.4.2, 1-(1-(4-chloro-2-fluorophenyl)-7-(trifluoromethyl)-3,4-dihydroimidazo[1,2-a:5,4-c′]dipyridin-2(1H)-yl)-2-(2-chloro-4-(morpholinomethyl)phenoxy)ethan-1-one]	7
CCc1cc(C)c(C(N)=O)cc1OCC(=O)N1CCc2nc3ccccn3c2C1c1ccc(OC)c(OC)c1 (centres unmarked) [Example 1.1.11, 5-(2-(1-(3,4-dimethoxyphenyl)-3,4-dihydroimidazo[1,2-a:5,4-c′]dipyridin-2(1H)-yl)-2-oxoethoxy)-4-ethyl-2-methylbenzamide]	248
O=C(NC1CC1)c1ccc(OCC(=O)N2CCc3nc4ccccn4c3C2c2ccc(Cl)cc2F)c(C2CC2)n1 (centres unmarked) [Example 1.4.13, 5-(2-(1-(4-chloro-2-fluorophenyl)-3,4-dihydroimidazo[1,2-a:5,4-c′]dipyridin-2(1H)-yl)-2-oxoethoxy)-N,6-dicyclopropylpicolinamide]	36
CCc1nc(C)ccc1OCC(=O)N1CCc2nc3ccccn3c2C1c1ccc(C2CC2)cc1F (centres unmarked) [Example 1.5.5, 1-(1-(4-cyclopropyl-2-fluorophenyl)-3,4-dihydroimidazo[1,2-a:5,4-c′]dipyridin-2(1H)-yl)-2-((2-ethyl-6-methylpyridin-3-yl)oxy)ethan-1-one]	29
COc1ccc(C2c3c(nc4cc(C(F)(F)F)ccn34)CCN2C(=O)COc2cc(-c3ccccc3)nn2C)cc1OC (centres unmarked) [Example 3.1.24]	157
Cc1ccc(C2c3c(nc4cc(C(F)(F)F)ccn34)CCN2C(=O)COc2ccc3ccccc3c2)cc1C (centres unmarked) [Example 3.10.1, 1-(1-(3,4-dimethylphenyl)-7-(trifluoromethyl)-3,4-dihydroimidazo[1,2-a:5,4-c′]dipyridin-2(1H)-yl)-2-(naphthalen-2-yloxy)ethan-1-one]	33
CCc1cc(Br)ccc1OCC(=O)N1CCc2nc3cc(C(F)(F)F)ccn3c2C1c1ccc(OC)c(OC)c1 (centres unmarked) [Example 3.1.31, 2-(4-bromo-2-ethylphenoxy)-1-(1-(3,4-dimethoxyphenyl)-7-(trifluoromethyl)-3,4-dihydroimidazo[1,2-a:5,4-c′]dipyridin-2(1H)-yl)ethan-1-one]	43
COC(C)(C)c1ccc(C2c3c(nc4ccccn34)CCN2C(=O)COc2ccc(C(=O)NC3CC3)nc2Cl)c(F)c1 (centres unmarked) [Example 1.17.1, 6-chloro-N-cyclopropyl-5-(2-(1-(2-fluoro-4-(2-methoxypropan-2-yl)phenyl)-3,4-dihydroimidazo[1,2-a:5,4-c′]dipyridin-2(1H)-yl)-2-oxoethoxy)picolinamide]	140

The next lines start with the values.

IC50 [nM]	SMILES
295	O=C(COc1ccc(CN2CCOCC2)cc1Cl)N1CCc2nc3cc(C(F)(F)F)ccn3c2C1c1ccnc(Cl)c1 (centres unmarked) [Example 3.56.2, 2-(2-chloro-4-(morpholinomethyl)phenoxy)-1-(1-(2-chloropyridin-4-yl)-7-(trifluoromethyl)-3,4-dihydroimidazo[1,2-a:5,4-c′]dipyridin-2(1H)-yl)ethan-1-one]
312	O=C(COc1ccc2ccccc2c1)N1CCc2nc3cc(C(F)(F)F)ccn3c2C1c1ccc(F)cc1 (centres unmarked) [Example 3.29.1, 1-(1-(4-fluorophenyl)-7-(trifluoromethyl)-3,4-dihydroimidazo[1,2-a:5,4-c′]dipyridin-2(1H)-yl)-2-(naphthalen-2-yloxy)ethan-1-one]
214	O=C(COc1ccc(CN2CCOCC2)cc1Cl)N1CCc2nc3cc(C(F)(F)F)ccn3c2C1c1ncn2ccccc12 (centres unmarked) [Example 3.48.1, 2-(2-chloro-4-(morpholinomethyl)phenoxy)-1-(1-(imidazo[1,5-a]pyridin-1-yl)-7-(trifluoromethyl)-3,4-dihydroimidazo[1,2-a:5,4-c′]dipyridin-2(1H)-yl)ethan-1-one]
144	O=C(COc1cccnc1C(F)(F)F)N1CCc2nc3cccnn3c2C1c1ncc(C2CC2)cc1F (centres unmarked) [Example 16.2.3, 1-(9-(5-cyclopropyl-3-fluoropyridin-2-yl)-6,9-dihydropyrido[4′,3′:4,5]imidazo[1,2-b]pyridazin-8(7H)-yl)-2-((2-(trifluoromethyl)pyridin-3-yl)oxy)ethan-1-one]
10	COc1ccc(C2c3c(nc4cc(C(C)(C)C)ccn34)CCN2C(=O)COc2ccc(Cl)cc2Cl)cc1OC (centres unmarked) [Example 5.1.1, 1-(7-(tert-butyl)-1-(3,4-dimethoxyphenyl)-3,4-dihydroimidazo[1,2-a:5,4-c′]dipyridin-2(1H)-yl)-2-(2,4-dichlorophenoxy)ethan-1-one]
68	Cc1c(CN2CCOCC2)ccc(OCC(=O)N2CCc3nc4cc(C(F)(F)F)ccn4c3C2c2cnn(-c3ccccc3)c2)c1C (centres unmarked) [Example 3.41.3, 2-(2,3-dimethyl-4-(morpholinomethyl)phenoxy)-1-(1-(1-phenyl-1H-pyrazol-4-yl)-7-(trifluoromethyl)-3,4-dihydroimidazo[1,2-a:5,4-c′]dipyridin-2(1H)-yl)ethan-1-one]
34	CCc1nc(NS(C)(=O)=O)ccc1OCC(=O)N1CCc2nc3ccc(F)cn3c2C1c1ccc(Cl)cc1F (centres unmarked) [Example 11.2.2, N-(5-(2-(1-(4-chloro-2-fluorophenyl)-8-fluoro-3,4-dihydroimidazo[1,2-a:5,4-c′]dipyridin-2(1H)-yl)-2-oxoethoxy)-6-ethylpyridin-2-yl)methanesulfonamide]
9	CCc1cc2nc3c(n2cc1C)C(c1ccc(OC)c(OC)c1)N(C(=O)COc1ccc2ccccc2c1CC)CC3 (centres unmarked) [Example 6.1.3, 1-(1-(3,4-dimethoxyphenyl)-7-ethyl-8-methyl-3,4-dihydroimidazo[1,2-a:5,4-c′]dipyridin-2(1H)-yl)-2-((1-ethylnaphthalen-2-yl)oxy)ethan-1-one]
47	O=C(COc1ccc2ccccc2c1)N1CCc2nc3cc(C(F)(F)F)ccn3c2C1c1cc2cccnc2s1 (centres unmarked) [Example 3.49.1, 2-(naphthalen-2-yloxy)-1-(1-(thieno[2,3-b]pyridin-2-yl)-7-(trifluoromethyl)-3,4-dihydroimidazo[1,2-a:5,4-c′]dipyridin-2(1H)-yl)ethan-1-one]
